Test results from US20230172906A1, “METHOD TO TREAT VIRAL INFECTION INDUCED BY A CORONAVIRUS” (priority 2020, published 2023).

Columns and labels:
[1] = system: HEK293 cells; conditions: melatonin at 10 and 100 μM, FIG. 1B
[2] = biological target: T1, RBD/ACE2 interaction (Homo sapiens, UniProt Q9BYF1); format: binding
T1 construct: expressed in transfected cells; host or cells: HEK293

[3] = system: SARS-CoV-2 pseudovirus entry into HEK293 cells expressing human ACE2; format: cell-based

T1 sequence (Q9BYF1 18-805): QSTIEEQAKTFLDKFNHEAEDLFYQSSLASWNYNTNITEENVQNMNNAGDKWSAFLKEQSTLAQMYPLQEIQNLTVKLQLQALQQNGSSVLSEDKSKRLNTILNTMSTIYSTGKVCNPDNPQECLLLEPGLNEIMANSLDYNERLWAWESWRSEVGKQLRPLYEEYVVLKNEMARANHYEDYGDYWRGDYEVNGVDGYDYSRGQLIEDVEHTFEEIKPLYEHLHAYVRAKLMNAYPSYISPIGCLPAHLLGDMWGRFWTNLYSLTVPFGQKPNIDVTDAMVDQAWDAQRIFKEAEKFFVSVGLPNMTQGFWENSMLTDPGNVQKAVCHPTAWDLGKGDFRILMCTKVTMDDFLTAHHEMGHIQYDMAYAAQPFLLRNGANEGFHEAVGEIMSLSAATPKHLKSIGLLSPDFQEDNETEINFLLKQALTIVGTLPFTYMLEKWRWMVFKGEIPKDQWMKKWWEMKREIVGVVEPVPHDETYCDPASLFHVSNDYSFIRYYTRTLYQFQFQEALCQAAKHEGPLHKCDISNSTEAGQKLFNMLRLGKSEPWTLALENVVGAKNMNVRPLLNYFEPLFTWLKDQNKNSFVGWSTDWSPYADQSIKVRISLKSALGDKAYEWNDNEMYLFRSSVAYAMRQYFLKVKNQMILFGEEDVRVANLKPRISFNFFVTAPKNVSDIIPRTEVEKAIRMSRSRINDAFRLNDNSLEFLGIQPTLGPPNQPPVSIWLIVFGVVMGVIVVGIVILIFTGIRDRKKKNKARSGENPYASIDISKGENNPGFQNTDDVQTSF

For `COc1ccc2[nH]cc(CCNC(C)=O)c2c1` [melatonin, Melatonin], the cell viability [1] was “without affecting cell viability”, the “binding of RBD-d2 of the SARS-CoV-2 Spike protein to Lumi4-Tb-labeled SNAP-tagged human ACE2” value [2] was “inhibits” and the “infection by the SARS-CoV-2 pseudovirus” value [3] was “inhibited”.
